Several values for one entry are separate records, joined by “and”; a condition that tells them apart may be missing. Equal values may be shown once. Read-outs that look alike come from different tables or passages of the source.
How the values were obtained:
[1] = Odiparcil tissue exposure after repeated oral dosing (LC-MS/MS); format: in vivo, Sprague Dawley rats; details: rat
Method: Sprague Dawley rats were orally administered with odiparcil for 5-days, three times a day (t.i.d) with a 25 mg/kg/dose as a suspension in Methylcellulose 400 cps 1% / Poloxamer 188 0.1% / Water. On day 5, only one dose was administered and tissues–bone from head of femurs and cartilage also from head of femurs, cornea and heart–were collected at 30 min post-dosing, 3 animals per sample. Tissues were snap-frozen immediately after collection and stored at -20°C until odiparcil quantification by LC-MS/MS. Non compartmental method was applied with Phoenix WinNonLin® to estimate the Cmax and AUC parameters. Tissue partition coefficient (Kp) was calculated on AUC values (AUC tissue / AUC plasma). Moreover, Kp for the heart was corrected for the significant blood content (26%) while it was not corrected for bone, cartilage and cornea.

[2] = test system: Bovine aortic endothelial cells; assay: Secretion of [35S]-labelled sulphated GAG into culture medium of BAE cells; format: cell-based; details: for Mean CSGAG (%) of total secreted sulphated GAG / Mean HSGAG (%) of total secreted sulphated GAG: BAE cell culture media; for Mean CSGAG (%) of total secreted sulphated GAG: CSase ABC degradation; for Mean HSGAG (%) of total secreted sulphated GAG: Heparitinase II degradation; for Maximum stimulation of HSGAG secretion (fold over the base level): at 10 μM odiparcil
Method: GAG secreted into cell culture supernatant were analysed in Bovine aortic endothelial cells (ECACC 92010601), cultured in 6-well plates and incubated for 24 h in the presence of [^35S] sodium sulphate ([…]; 0.1% final concentration of DMSO). The culture supernatants were recovered and the unincorporated [^35S] was then removed by gel filtration on Sephadex G25 columns, the GAG being eluted in the column exclusion fraction (V0). A solution of cetylpyridinium chloride (0.1% final concentration) was added to the eluent in order to precipitate the GAG for 24 h at room temperature. The samples were then centrifuged and the supernatant was removed. The precipitate obtained was re-suspended in 2 M magnesium chloride and the GAG were precipitated with 5 volumes of 95% ethanol. After centrifugation, the alcoholic precipitates were re-suspended in 0.9% sodium chloride and then the radioactivity was measured.
In order to sort the GAG produced in the supernatants from cells in culture, the re-suspended alcoholic precipitates were treated with chondroitinase ABC (Proteus vulgaris) in a proportion of 0.5 mU/μL, for 3 h at 37°C. After inactivation of the enzyme for 3 min at 100°C, the undigested GAG were precipitated with 5 volumes of 95% ethanol, overnight at 4°C. After centrifugation, the alcoholic precipitates were re-suspended in 0.9% sodium chloride and then the radioactivity was measured on an aliquot fraction after addition of scintillation fluid in counting vials. GAG of heparan sulphate type were treated with heparinase II (Flavobacterium heparinum) in a proportion of 4 mU/μl, for 12 h at 30°C. After inactivation of the enzyme for 3 min at 100°C, the undigested GAG were precipitated with 5 volumes of 95% ethanol, overnight at 4°C. After centrifugation, the alcoholic precipitates were re-suspended in 0.9% sodium chloride and then the radioactivity was measured on an aliquot fraction after addition of scintillation fluid in counting vials.

[3] = test system: MPS VI patient fibroblasts GM00538; assay: Number of cultured cells (viability) during odiparcil treatment; format: cell-based, human; details: different odiparcil concentrations, growing and confluent conditions
Method: Primary skin fibroblasts from MPS VI patients GM00538 and GM02572 were obtained from the NIGMS Human Genetic Cell Repository at the Coriell Institute for Medical Research. Cell culturing was done according to the conditions provided by the Coriell Institute. For evaluation of the effect of odiparcil, cells were seeded in 96 well imaging plates (Falcon Cat N 353219) and two types of treatment were evaluated: i) prophylactic conditions—cells were treated with odiparcil before reaching confluence, 24 hours after plating; and ii) curative conditions—cells were treated with odiparcil after reaching confluence (10 days culturing). Cells were treated by odiparcil added to the culture media. This was done by replacing the initial culture media by media containing 0.1% DMSO with or without odiparcil (at 0.01, 0.03, 0.1, 0.3, 1, 3 and 10 μM). For treatment, the cells were incubated for 72 hours at 37°C, 5% CO2. All experimental conditions were performed in triplicate, i.e., 3 wells/test condition.
After odiparcil treatment as described above, culture media were removed to be used for dimethylmethylene blue (DMMB) assay and the cells were fixed in PFA 4%. Immunofluorescent staining was done following standard protocol comprising permeabilization with 0.1% Triton X 100, blocking with 2% NGS, staining with primary antibody and staining with secondary antibody and Hoechst (for nuclei visualization). […]

[4] = BAE cells, 24 h, [35S] sulphate

Cc1cc(=O)oc2cc(O[C@@H]3SC[C@@H](O)[C@H](O)[C@H]3O)ccc12 [Odiparcil, 4-methyl-7-(5-thio-β-D-xylopyranosyloxy)-2 H-chromen-2-one]
Cmax ([1]; Sprague-Dawley, bone (head of femurs), po, 25 mg/kg, bone (head of femurs), oral 25 mg/kg/dose t.i.d. 5 days, read-out: Cmax (converted)): 1310 ng/g | Cmax ([1]; Sprague-Dawley, bone (head of femurs), po, 25 mg/kg, bone, oral 25 mg/kg/dose t.i.d. 5 days, read-out: Cmax (converted)): 4 µM | Kp at 120 h ([1]; Sprague-Dawley, bone (head of femurs), po, 25 mg/kg, bone, oral 25 mg/kg/dose t.i.d. 5 days, read-out: Kp AUC (AUC tissue / AUC plasma)): 0.18 | Kp ([1]; Sprague-Dawley, bone, cartilage, cornea, po, 25 mg/kg/dose, bone, cartilage and cornea together, repeated oral dosing, read-out: AUC Kp): ~0.15 | Cmax ([1]; Sprague-Dawley, bone, cartilage, cornea, po, 25 mg/kg/dose, span over bone, cartilage and cornea, repeated oral dosing, read-out: Cmax (converted)): 500 ng/g to 1300 ng/g and 1.7 µM to 4 µM | Cmax ([1]; Sprague-Dawley, cartilage (head of femurs), po, 25 mg/kg, cartilage (head of femurs), oral 25 mg/kg/dose t.i.d. 5 days, read-out: Cmax (converted)): 1100 ng/g | Cmax ([1]; Sprague-Dawley, cartilage (head of femurs), po, 25 mg/kg, cartilage, oral 25 mg/kg/dose t.i.d. 5 days, read-out: Cmax (converted)): 3.4 µM | Kp at 120 h ([1]; Sprague-Dawley, cartilage (head of femurs), po, 25 mg/kg, cartilage, oral 25 mg/kg/dose t.i.d. 5 days, read-out: Kp AUC (AUC tissue / AUC plasma)): 0.12 | Cmax ([1]; Sprague-Dawley, cornea, po, 25 mg/kg, cornea, oral 25 mg/kg/dose t.i.d. 5 days, read-out: Cmax (converted)): 535 ng/g and 1.7 µM | Kp at 120 h ([1]; Sprague-Dawley, cornea, po, 25 mg/kg, cornea, oral 25 mg/kg/dose t.i.d. 5 days, read-out: Kp AUC (AUC tissue / AUC plasma)): 0.12 | Kp at 120 h ([1]; Sprague-Dawley, heart, po, 25 mg/kg, heart, corrected for blood content (26%), oral 25 mg/kg/dose t.i.d. 5 days, read-out: blood corrected Kp AUC): ~0.44 | Kp at 120 h ([1]; Sprague-Dawley, heart, po, 25 mg/kg, heart, not blood corrected, oral 25 mg/kg/dose t.i.d. 5 days, read-out: Kp AUC (AUC tissue / AUC plasma)): 0.69 | Cmax ([1]; Sprague-Dawley, heart, po, 25 mg/kg, heart, oral 25 mg/kg/dose t.i.d. 5 days, read-out: Cmax (converted)): ~4600 ng/g and ~14.3 µM | Cmax ([1]; Sprague-Dawley, plasma, po, 25 mg/kg, plasma, oral 25 mg/kg/dose t.i.d. 5 days, 30 min after last administration, read-out: Cmax (converted)): ~7300 ng/mL | Cmax ([1]; Sprague-Dawley, plasma, po, 25 mg/kg, plasma, oral 25 mg/kg/dose t.i.d. 5 days, read-out: Cmax (converted)): ~22.5 µM | AUC ([1]; Sprague-Dawley, plasma, oral 25 mg/kg/dose t.i.d. 5 days, read-out: AUC (converted)): 14800 ng·h/mL | AUC ([1]; bone, oral 25 mg/kg/dose t.i.d. 5 days): 2 646 ng.h/g | AUC ([1]; cartilage, oral 25 mg/kg/dose t.i.d. 5 days): 1 805 ng.h/g | AUC ([1]; cornea, oral 25 mg/kg/dose t.i.d. 5 days): 1 737 ng.h/g | AUC ([1]; heart, oral 25 mg/kg/dose t.i.d. 5 days): 10 203 ng.h/g | Cmax ([1]; plasma, oral 25 mg/kg/dose t.i.d. 5 days, 30 min after last administration, 25 mg/kg): 7 297 ng/mL | Mean CSGAG (%) of total secreted sulphated GAG ([2]; odiparcil 0.1 µM): 78.5% | Mean HSGAG (%) of total secreted sulphated GAG ([2]; odiparcil 0.1 µM): 34.5% | Mean CSGAG (%) of total secreted sulphated GAG ([2]; odiparcil 0.3 µM): 83.5% | Mean HSGAG (%) of total secreted sulphated GAG ([2]; odiparcil 0.3 µM): 28.0% | Mean CSGAG (%) of total secreted sulphated GAG ([2]; odiparcil 1 µM): 83.9% | Mean HSGAG (%) of total secreted sulphated GAG ([2]; odiparcil 1 µM): 16.0% | Mean CSGAG (%) of total secreted sulphated GAG ([2]; odiparcil 3 µM): 82.5% | Mean HSGAG (%) of total secreted sulphated GAG ([2]; odiparcil 3 µM): 15.0% | Mean CSGAG (%) of total secreted sulphated GAG ([2]; odiparcil 10 µM): 73.5% | Mean HSGAG (%) of total secreted sulphated GAG ([2]; odiparcil 10 µM): 19.5% | Maximum CS-like GAGs (fold stimulation over the base level) [2, 4]: 12.2 fold | Maximum stimulation of total GAG secretion (fold over the base level) ([2]; BAE cells, 24 h, [35S] sulphate, achieved with 3 μM odiparcil): 10.7 fold | Maximum stimulation of HSGAG secretion (fold over the base level) [2, 4]: 4.92 fold | Maximum stimulation of HSGAG secretion (fold over the base level) ([2]; BAE cells, 24 h, [35S] sulphate, listed as odiparcil): 4.9 fold | Effect on viability of the cells (number of cells) [3]: no effect on viability of the cells
